From patent US20250144049A1, “METHODS, COMPOSITIONS, AND USES RELATED TO THE TREATMENT AND PREVENTION OF LEIGH SYNDROME” (Stealth BioTherapeutics Inc., priority 2023, published 2025)

How the values were obtained:
[1] = test system: 15-lipoxygenase (15-LO); experiment: 15(S)-HETE ELISA following RSL3 treatment, healthy fibroblasts; type: cell-based, human; conditions: 700 nM RSL3, 1 μM compound, FIG. 10; for inhibition of 15-lipoxygenase (15(S)-HETE in supernatant): 24 hours
Description: (§1) Samples for the 15(S)-HETE ELISA were generated by the RSL3 cytoprotection assay described above. Healthy or Leigh fibroblasts were resuspended in assay medium, seeded at 200,000 cells per well in a clear, tissue culture-treated, 24-well plate. Cells were incubated at 37° C. for 24 hours. Supernatant was aspirated from each well following the incubation.
(§2) Fibroblasts from both a healthy individual and a patient diagnosed with Leigh syndrome were examined (but not all compounds were examined in each cell type). Activation of ferroptosis has been implicated as a driver of epilepsy, which is commonly associated with Leigh syndrome. […] Kahn-Kirby et al. PLOS One. […] As a key regulator of ferroptosis, 15-LO serves as a rational therapeutic target in Leigh syndrome.

[2] = test system: reverse electron transfer (RET) from Complex II to Complex I in isolated murine brain mitochondria; experiment: Reverse electron transfer (RET) assay, H2O2 (ROS) production; type: biochemical, mouse
Description: For mitochondria isolation, brains were dissected at a local vivarium (Explora, MA, USA) from C57BL/6 mice that were supplied by The Jackson Laboratory (Maine, USA). Brains were collected on ice in cold mitochondria isolation buffer (225 mM mannitol, 75 mM sucrose, 5 mM HEPES, 1 mM EGTA, pH 7.4). In a glass petri dish, brains were mixed with a few drops of buffer and cut into small pieces resembling a mash using scissors. Mitochondrial isolation buffer was added at 1:10-1:20 (w/v) and tissue mash was transferred to a glass Dounce tissue homogenizer and further homogenized with 10-15 strokes. Mash was centrifuged at 1,000×g for 10 min to pellet and remove cellular debris, etc. Supernatant was transferred into 2.0 mL tubes and centrifuged at 10,000×g. The mitochondria pellet was resuspended in the desired amount of miR05 buffer (Oroboros, Innsbruck, Austria) and added directly to the Oroboros oxygraph-2K (Oroboros, Innsbruck, Austria) for an experiment or maintained on ice for up to 4 hours.
All high-resolution respirometry experiments were conducted using the Oroboros O2k-Fluorespirometer (Oroboros, Innsbruck, Austria). The Oroboros O2k-Fluorespirometer was calibrated daily using the air calibration protocol on DatLab 7.4 (Oroboros, Innsbruck, Austria). Prior to each experiment requiring the fluorescence module, the AmpR calibration protocol from DatLab 7.4 was used to calibrate the fluorescence signal. Initial data analysis, including setting of marks, was performed using DatLab 7.4.
Reverse electron transfer (RET) was measured using HRR with the Oroboros O2k and DatLab 7.4. To configure the Amp channel, the light or “Fluo intensity” was set at 1000 and the amplification of signal or “Gain for Fluo sensor” at 500 and illumination in the chamber was turned “off”. To calibrate the Fluo sensors, the Instrument protocol “AmR calibration” was used. […]
Statistical analysis was performed using GraphPad Prism 9. […] RET Assay data were analyzed by 2-way ANOVA using a p-value of 0.05. […]

[3] = test system: Leigh (GM03672) fibroblasts; experiment: Erastin cytoprotection assay, Leigh fibroblasts; type: cell-based, human; conditions: 2 μM erastin, 24 hours, FIG. 13
Description: (§3) Briefly, Healthy (GM08402) or Leigh (GM03672) fibroblasts were resuspended in assay medium, seeded at 10,000 cells per well in a clear, tissue cultured-treated, 96-well plate, and incubated at 37° C. overnight. Following the incubation, supernatant was manually aspirated from wells, taking care not to disrupt cells. Fibroblasts were co-treated in a final volume of 100 μL with 2 μM erastin (Millipore Corp., Cat #), 250 μM ferric ammonium citrate (FAC), 50 µM ascorbic acid (AA), and a titration of one of each of Compounds 1 to 4 or Vatiquinone ranging from 10 to 1000 nM. Following another 24-hour incubation at 37° C., cell viability was measured using the CellTiter-Glo Luminescent Cell Viability Kit (ProMega) per Manufacturer's instructions. Luminescence units were quantified by GEN5 software on a BioTek SYNERGY neo2 plate reader (LUM filter).
(§4) Briefly, erastin, like RSL3, is known to induce ferroptosis. […] Erastin was incubated with cell fibroblasts for 24 hours to induce ferroptosis. Cells were co-treated with each of Compounds 1 to 4, or Vatiquinone as the test articles. Test articles were administered at a range of concentrations to derive a curve. Cell viability was determined using a commercially available kit that measures ATP production. […] An increase in cell viability as determined by the assay is considered to be protective against ferroptosis.

[4] = test system: Healthy (GM08402) fibroblasts; experiment: Erastin cytoprotection assay, healthy fibroblasts; type: cell-based, human; conditions: 2 μM erastin, 24 hours, FIG. 12
Description: as §3, §4

[5] = test system: 15-lipoxygenase (15-LO); experiment: 15(S)-HETE ELISA following RSL3 treatment, Leigh fibroblasts; type: cell-based, human; conditions: 700 nM RSL3, 1 μM compound, FIG. 11
Description: as §1, §2

[6] = 2 μM compound prior to addition of succinate (10 mM)

| Compound | inhibition of 15-lipoxygenase (15(S)-HETE in supernatant) [1] | 15-lipoxygenase inhibition compared among test articles [1] | H2O2 production [2, 6] | protective effect compared among test articles [3] | protective effect compared among test articles [4] | 15-LO inhibition compared among test articles [5] | H2O2 production ([2]; 1 μM compound prior to addition of succinate (10 mM)) |
| --- | --- | --- | --- | --- | --- | --- | --- |
| CC1=C(C)C(=O)C(CC[C@@](C)(O)COCCC[Si](C)(C)C)=C(C)C1=O [Compound 3] | inhibited 15-lipoxygenase | superior to Compounds 2, 4 and Vatiquinone | statistically significant reduction | superior in their protective effect | superior in their protective effect | roughly equivalent protective effect | – |
| CC1=C(C)C(=O)C(CC[C@](C)(O)CCCCCCCCC(F)(F)F)=C(C)C1=O [Compound 4] | inhibited 15-lipoxygenase | roughly equivalent protective effect | statistically significant reduction | about equally protective | about equally protective | roughly equivalent protective effect | statistically significant reduction |
